Reference: PubChem BioAssay (NCI)
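1) Cells in 96-well plates. 2) Compound, 48 h, 5 concentrations. 3) Linear interpolation between surrounding doses. 4) Unreached endpoint = highest concentration. GI50 is the concentration that inhibits growth by half. TGI: total growth inhibition.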

Legend:
Assay in all cases: NCI tumour cell line growth inhibition, 48 h
[1] = tested on: HT29 colon
[2] = tested on: 786-0 renal
[3] = tested on: M14 melanoma
[4] = tested on: HCT-116 colon
[5] = tested on: DU-145 prostate
[6] = tested on: A549 NSCLC
[7] = tested on: UO-31 renal
[8] = tested on: EKVX NSCLC
[9] = tested on: OVCAR-5 ovarian
[10] = tested on: SF-539 CNS
[11] = tested on: SK-OV-3 ovarian
[12] = tested on: K-562 leukemia
[13] = tested on: NCI/ADR-RES ovarian
[14] = tested on: MOLT-4 leukemia
[15] = tested on: BT-549 breast
[16] = tested on: HOP-92 NSCLC
[17] = tested on: COLO 205 colon
[18] = tested on: TK-10 renal
[19] = tested on: SK-MEL-28 melanoma
[20] = tested on: CCRF-CEM leukemia
[21] = tested on: NCI-H522 lung
[22] = tested on: ACHN renal
[23] = tested on: NCI-H23 lung
[24] = tested on: MDA-MB-435
[25] = tested on: HOP-62 NSCLC
[26] = tested on: SK-MEL-2 melanoma
[27] = tested on: SK-MEL-5 melanoma
[28] = tested on: OVCAR-8 ovarian
[29] = tested on: KM12 colon

**Q.** Which GI50 [1] does the source give for `C=C(C)[C@@H]1/C=C(/C(C)C)CC[C@@]2(C)OC2CC[C@H](C)CC1=O` (stereo partly drawn) here?
**A.** 31.6 µM

**Q.** What about the TGI [1] of the same compound?
**A.** 98.8 µM

**Q.** And the GI50 [2]?
**A.** > 42.8 µM

**Q.** And the TGI [2]?
**A.** > 59.6 µM

**Q.** What about the GI50 [3] of the same compound?
**A.** 30.8 µM

**Q.** And the TGI [3]?
**A.** > 62.8 µM

**Q.** And the GI50 [4]?
**A.** 17.3 µM

**Q.** What about the TGI [4] of the same compound?
**A.** 31.7 µM

**Q.** What about the GI50 [5] of the same compound?
**A.** 19.4 µM

**Q.** And the TGI [5]?
**A.** 36 µM

**Q.** What about the GI50 [6] of the same compound?
**A.** 28.8 µM

**Q.** What about the TGI [6] of the same compound?
**A.** > 100 µM

**Q.** And the GI50 [7]?
**A.** 23.2 µM

**Q.** And the TGI [7]?
**A.** > 55.7 µM

**Q.** What about the GI50 [8] of the same compound?
**A.** 52.1 µM

**Q.** And the TGI [8]?
**A.** > 100 µM

**Q.** What about the GI50 [9] of the same compound?
**A.** > 43.5 µM

**Q.** And the TGI [9]?
**A.** > 63.5 µM

**Q.** And the GI50 [10]?
**A.** 21.9 µM

**Q.** And the TGI [10]?
**A.** 42.7 µM

**Q.** What about the GI50 [11] of the same compound?
**A.** > 100 µM

**Q.** What about the TGI [11] of the same compound?
**A.** > 100 µM

**Q.** And the GI50 [12]?
**A.** 19.7 µM

**Q.** What about the TGI [12] of the same compound?
**A.** 58.6 µM

**Q.** And the GI50 [13]?
**A.** 25.4 µM

**Q.** What about the TGI [13] of the same compound?
**A.** 59.8 µM

**Q.** What about the GI50 [14] of the same compound?
**A.** 16.3 µM

**Q.** And the TGI [14]?
**A.** 40.9 µM

**Q.** And the GI50 [15]?
**A.** 38.8 µM

**Q.** What about the TGI [15] of the same compound?
**A.** > 100 µM

**Q.** And the GI50 [16]?
**A.** 26.3 µM

**Q.** What about the TGI [16] of the same compound?
**A.** > 76.7 µM

**Q.** What about the GI50 [17] of the same compound?
**A.** 24.9 µM

**Q.** What about the TGI [17] of the same compound?
**A.** > 61 µM

**Q.** What about the GI50 [18] of the same compound?
**A.** 27.6 µM

**Q.** And the TGI [18]?
**A.** > 79.4 µM

**Q.** What about the GI50 [19] of the same compound?
**A.** 59.3 µM

**Q.** What about the TGI [19] of the same compound?
**A.** > 100 µM

**Q.** And the GI50 [20]?
**A.** 20.3 µM

**Q.** What about the TGI [20] of the same compound?
**A.** 52.3 µM

**Q.** What about the GI50 [21] of the same compound?
**A.** 31.2 µM

**Q.** And the TGI [21]?
**A.** > 93.5 µM

**Q.** And the GI50 [22]?
**A.** 27.5 µM

**Q.** And the TGI [22]?
**A.** > 55 µM

**Q.** What about the GI50 [23] of the same compound?
**A.** 21.2 µM

**Q.** What about the TGI [23] of the same compound?
**A.** 43.9 µM

**Q.** And the GI50 [24]?
**A.** 26.6 µM

**Q.** What about the TGI [24] of the same compound?
**A.** 71.6 µM

**Q.** What about the GI50 [25] of the same compound?
**A.** 30.3 µM

**Q.** What about the TGI [25] of the same compound?
**A.** > 57.9 µM

**Q.** And the GI50 [26]?
**A.** 52.1 µM

**Q.** And the TGI [26]?
**A.** > 100 µM

**Q.** And the GI50 [27]?
**A.** 19.4 µM

**Q.** And the TGI [27]?
**A.** 37.9 µM

**Q.** And the GI50 [28]?
**A.** 33.9 µM

**Q.** What about the TGI [28] of the same compound?
**A.** > 70.5 µM

**Q.** What about the GI50 [29] of the same compound?
**A.** 18.6 µM

**Q.** And the TGI [29]?
**A.** 39.7 µM
